Source: ChEMBL document CHEMBL1201862, “PubChem BioAssay data set” (2004)
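Cells were grown in 96-well plates and exposed to each compound for 48 hours at five concentrations; endpoints were interpolated linearly between bracketing concentrations, or set to the highest concentration if not reached. GI50 marks 50% less growth.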 Calls of active or inactive are those of the source. No stated cut-off is given here; in the data, active = GI50 up to about 1.1 µM and inactive = higher.

Columns and labels:
Assay in all cases: growth of human tumour cells (NCI), 48 h
[1] = tested on: 786-0
[2] = tested on: A498
[3] = tested on: A549
[4] = tested on: ACHN
[5] = tested on: CAKI-1
[6] = tested on: CCRF-CEM
[7] = tested on: COLO 205
[8] = tested on: DU-145
[9] = tested on: EKVX
[10] = tested on: HCC 2998
[11] = tested on: HCT-116
[12] = tested on: HCT-15
[13] = tested on: HL-60
[14] = tested on: HOP-62
[15] = tested on: HOP-92
[16] = tested on: HT-29
[17] = tested on: Hs-578T
[18] = tested on: IGROV-1
[19] = tested on: K562
[20] = tested on: KM12
[21] = tested on: LOX IMVI
[22] = tested on: M14
[23] = tested on: MCF7
[24] = tested on: MDA-MB-231
[25] = tested on: MDA-MB-435
[26] = tested on: MDA-N
[27] = tested on: MOLT-4
[28] = tested on: Malme-3M
[29] = tested on: NCI-H226
[30] = tested on: NCI-H23
[31] = tested on: NCI-H460
[32] = tested on: NCI-H522
[33] = tested on: NCI/ADR-RES
[34] = tested on: OVCAR-3
[35] = tested on: OVCAR-4
[36] = tested on: OVCAR-5
[37] = tested on: OVCAR-8
[38] = tested on: PC-3
[39] = tested on: RPMI-8226
[40] = tested on: SF-268
[41] = tested on: SF-295
[42] = tested on: SF-539
[43] = tested on: SK-MEL-28
[44] = tested on: SK-MEL-2
[45] = tested on: SK-MEL-5
[46] = tested on: SK-OV-3
[47] = tested on: SN12C
[48] = tested on: SNB-19
[49] = tested on: SNB-75
[50] = tested on: SW-620
[51] = tested on: T47D
[52] = tested on: TK-10
[53] = tested on: U-251
[54] = tested on: UACC-257
[55] = tested on: UACC-62
[56] = tested on: UO-31
[57] = tested on: BT-549
[58] = tested on: SR
[59] = tested on: RXF 393

Measured: GI50

CC(=O)N(CN1C(=O)CCC1C(=O)O)c1cccc(O)c1 (configuration not stated)
inactive: [1] > 100 µM | [2] > 100 µM | [3] > 100 µM | [4] > 100 µM | [5] > 100 µM | [6] > 100 µM | [7] > 100 µM | [8] > 100 µM | [9] > 100 µM | [10] > 100 µM | [11] > 100 µM | [13] > 100 µM | [14] > 100 µM | [15] > 100 µM | [16] > 100 µM | [17] > 100 µM | [18] > 100 µM | [19] > 100 µM | [20] > 100 µM | [21] > 100 µM | [22] > 100 µM | [23] > 100 µM | [24] > 100 µM | [25] > 100 µM | [26] > 100 µM | [27] > 100 µM | [28] > 100 µM | [29] > 100 µM | [30] > 100 µM | [31] > 100 µM | [32] > 100 µM | [33] > 100 µM | [34] > 100 µM | [35] > 100 µM | [36] > 100 µM | [37] > 100 µM | [38] > 100 µM | [39] > 100 µM | [40] > 100 µM | [41] > 100 µM | [42] > 100 µM | [43] > 100 µM | [44] > 100 µM | [45] > 100 µM | [46] > 100 µM | [47] > 100 µM | [48] > 100 µM | [49] > 100 µM | [50] > 100 µM | [51] > 100 µM | [52] > 100 µM | [53] > 100 µM | [54] > 100 µM | [55] > 100 µM | [56] > 100 µM
> 100 µM: [12]

COc1ccccc1C1(C)SCc2nc3ccccc3n21 (configuration not stated)
inactive: [57] > 10 µM | [6] > 10 µM | [8] > 10 µM | [13] > 10 µM | [15] > 10 µM | [19] > 10 µM | [20] > 10 µM | [21] > 10 µM | [22] > 10 µM | [23] > 10 µM | [25] > 10 µM | [26] > 10 µM | [27] > 10 µM | [28] > 10 µM | [29] > 10 µM | [30] > 10 µM | [32] > 10 µM | [33] > 10 µM | [34] > 10 µM | [35] > 10 µM | [36] > 10 µM | [38] > 10 µM | [44] > 10 µM | [47] > 10 µM | [48] > 10 µM | [58] > 10 µM | [50] > 10 µM | [52] > 10 µM | [53] > 10 µM | [56] > 10 µM
> 10 µM: [12]

CC(=O)OC/C=C/Cn1ncc(=O)[nH]c1=O
inactive: [2] > 100 µM | [3] > 100 µM | [4] > 100 µM | [5] > 100 µM | [6] > 10 µM | [7] > 100 µM | [8] > 100 µM | [9] > 100 µM | [10] > 100 µM | [13] > 100 µM | [14] > 100 µM | [15] > 100 µM | [16] > 100 µM | [17] > 100 µM | [18] > 100 µM | [19] > 100 µM | [20] > 100 µM | [21] > 100 µM | [22] > 100 µM | [23] > 100 µM | [24] > 100 µM | [25] > 100 µM | [26] > 100 µM | [27] > 100 µM | [28] > 100 µM | [29] > 100 µM | [30] > 10 µM | [31] > 100 µM | [32] > 100 µM | [33] > 100 µM | [34] > 100 µM | [36] > 100 µM | [37] > 100 µM | [38] > 100 µM | [39] > 100 µM | [59] > 100 µM | [40] > 100 µM | [42] > 100 µM | [43] > 100 µM | [44] > 100 µM | [45] > 100 µM | [47] > 100 µM | [48] > 100 µM | [49] > 100 µM | [50] > 100 µM | [51] > 100 µM | [53] > 100 µM | [56] > 100 µM
> 100 µM: [12]

SCc1ccc(CS)s1
inactive: [1] > 100 µM | [3] > 100 µM | [57] > 100 µM | [6] > 100 µM | [7] > 100 µM | [8] > 100 µM | [9] > 100 µM | [10] > 100 µM | [11] > 100 µM | [13] > 100 µM | [14] > 100 µM | [15] 15.3 µM | [16] > 100 µM | [18] > 100 µM | [19] > 100 µM | [20] > 100 µM | [21] > 100 µM | [22] > 100 µM | [23] > 100 µM | [24] > 100 µM | [25] > 100 µM | [26] > 100 µM | [27] > 100 µM | [30] > 100 µM | [31] > 100 µM | [32] > 100 µM | [33] > 100 µM | [34] > 100 µM | [35] > 100 µM | [36] > 100 µM | [37] > 100 µM | [38] > 100 µM | [40] > 100 µM | [41] > 100 µM | [42] > 100 µM | [43] > 100 µM | [45] > 100 µM | [46] > 100 µM | [47] > 100 µM | [48] > 100 µM | [49] 68.5 µM | [58] > 100 µM | [50] > 100 µM | [51] > 100 µM | [52] > 100 µM | [53] > 100 µM | [54] > 100 µM | [55] > 100 µM | [56] > 100 µM
> 100 µM: [12]

CCN(CCCl)c1cc(CN(C)C)cc(NC(=O)c2ccc(C(=O)Nc3ccccc3)cc2)c1
inactive: [24] 1.3 µM | [29] 1.53 µM | [33] 2.63 µM | [43] 1.19 µM | [51] 1.24 µM | [52] 3.02 µM | [54] 1.3 µM | [55] 1.29 µM | [56] 1.91 µM
active: [1] 0.21 µM | [2] 0.316 µM | [3] 0.42 µM | [4] 0.218 µM | [5] 0.65 µM | [6] 0.27 µM | [7] 1.04 µM | [8] 0.415 µM | [10] 0.789 µM | [11] 0.424 µM | [13] 0.193 µM | [14] 0.314 µM | [15] 0.414 µM | [16] 0.174 µM | [17] 0.218 µM | [18] 0.177 µM | [19] 0.406 µM | [20] 1.06 µM | [21] 0.204 µM | [22] 0.883 µM | [23] 0.232 µM | [25] 0.239 µM | [26] 0.298 µM | [27] 0.284 µM | [28] 0.191 µM | [30] 0.27 µM | [31] 0.275 µM | [32] 0.109 µM | [35] 0.288 µM | [36] 0.836 µM | [37] 0.417 µM | [38] 0.34 µM | [39] 0.307 µM | [59] 0.152 µM | [40] 0.337 µM | [41] 0.348 µM | [42] 0.647 µM | [44] 0.27 µM | [45] 0.194 µM | [46] 0.971 µM | [47] 0.767 µM | [48] 0.676 µM | [49] 1.08 µM | [58] 0.263 µM | [50] 0.15 µM | [53] 0.25 µM
1.7 µM: [12]
